Measured values: patent US10172863B2, “Purine derivatives useful as HSP90 inhibitors” (Sloan-Kettering Institute for Cancer Research, priority 2009, dated 2019)

Test system: SKBr3 cell Hsp90
Assay: EC50 for Hsp90 binding in SKBr3 cell lysate
Details: read-out: EC50, binding to SKBr3 cell Hsp90

| SMILES | EC50 [nM] |
| --- | --- |
| CC(C)NCCCn1c(Sc2cc3c(cc2-c2ccccc2)OCO3)nc2c(N)ncnc21 [Compound 4A-1, 9-(3-(isopropylamino)propyl)-8-(6-phenylbenzo[d][1,3]dioxol-5-ylthio)-9H-purin-6-amine] | 645 |
| CC(C)NCCCn1c(Sc2cc3c(cc2-c2ccc(C(C)(C)C)cc2)OCO3)nc2c(N)ncnc21 [Compound 4A-2, 8-(6-(4-tert-butylphenyl)benzo[d][1,3]dioxol-5-ylthio)-9-(3-(isopropylamino)propyl)-9H-purin-6-amine] | 6240 |
| CC(C)NCCCn1c(Sc2cc3c(cc2-c2cc(C(F)(F)F)cc(C(F)(F)F)c2)OCO3)nc2c(N)ncnc21 [Compound 4A-3, 8-(6-(3,5-bis(trifluoromethyl)phenyl)benzo[d][1,3]dioxol-5-ylthio)-9-(3-(isopropylamino)propyl)-9H-purin-6-amine] | > 100000 |
| NCCCCCCNCCCn1c(Sc2cc3c(cc2-c2cc(C(F)(F)F)cc(C(F)(F)F)c2)OCO3)nc2c(N)ncnc21 [Compound 4A-4, N1-(3-(6-amino-8-(6-(3,5-bis(trifluoromethyl)phenyl)benzo[d][1,3]dioxol-5-ylthio)-9H-purin-9-yl)propyl)hexane-1,6-diamine] | 15000 |
| CC(C)NCCCn1c(Sc2cc3c(cc2-c2ccc(N(C)C)cc2)OCO3)nc2c(N)ncnc21 [Compound 4A-5, 8-(6-(4-(dimethylamino)phenyl)benzo[d][1,3]dioxol-5-ylthio)-9-(3-(isopropylamino)propyl)-9H-purin-6-amine] | 2520 |
| COc1ccc(-c2cc3c(cc2Sc2nc4c(N)ncnc4n2CCCNC(C)C)OCO3)cc1 [Compound 4A-6, 9-(3-(isopropylamino)propyl)-8-(6-(4-methoxyphenyl)benzo[d][1,3]dioxol-5-ylthio)-9H-purin-6-amine] | 1030 |
| CC(C)(C)CNCCn1c(Sc2cc3c(cc2-c2ccco2)OCO3)nc2c(N)ncnc21 [Compound 4C-5, 8-(6-(furan-2-yl)benzo[d][1,3]dioxol-5-ylthio)-9-(2-(neopentylamino)ethyl)-9H-purin-6-amine] | 6.5 |

Now from value to compound:

| EC50 [nM] | SMILES |
| --- | --- |
| 1380 | CC(C)NCCCn1c(Sc2cc3c(cc2-c2ccc(Br)cc2)OCO3)nc2c(N)ncnc21 [Compound 4A-7, 8-(6-(4-bromophenyl)benzo[d][1,3]dioxol-5-ylthio)-9-(3-(isopropylamino)propyl)-9H-purin-6-amine] |
| > 3000 | CC(C)NCCCn1c(Sc2cc3c(cc2-c2ccc(C=O)cc2)OCO3)nc2c(N)ncnc21 [Compound 4A-8, 4-(6-(6-amino-9-(3-(isopropylamino)propyl)-9H-purin-8-ylthio)benzo[d][1,3]dioxol-5-yl)benzaldehyde] |
| 22 | CC(C)NCCCn1c(Sc2cc3c(cc2-c2ccco2)OCO3)nc2c(N)ncnc21 [Compound 4C-1, 8-(6-(furan-2-yl)benzo[d][1,3]dioxol-5-ylthio)-9-(3-(isopropylamino)propyl)-9H-purin-6-amine] |
| 86 | CC(C)NCCCn1c(Sc2cc3c(cc2-c2ccoc2)OCO3)nc2c(N)ncnc21 [Compound 4C-2, 8-(6-(furan-3-yl)benzo[d][1,3]dioxol-5-ylthio)-9-(3-(isopropylamino)propyl)-9H-purin-6-amine] |
| 141 | CC(C)NCCCn1c(Sc2cc3c(cc2-c2ccc(C=O)o2)OCO3)nc2c(N)ncnc21 [Compound 4C-6, 5-(6-(6-amino-9-(3-(isopropylamino)propyl)-9H-purin-8-ylthio)benzo[d][1,3]dioxol-5-yl)furan-2-carbaldehyde] |
| 37 | Cc1ccc(-c2cc3c(cc2Sc2nc4c(N)ncnc4n2CCCNC(C)C)OCO3)o1 [Compound 4C-8, 9-(3-(isopropylamino)propyl)-8-(6-(5-methylfuran-2-yl)benzo[d][1,3]dioxol-5-ylthio)-9H-purin-6-amine] |
| > 300 | CC(C)NCCCn1c(Sc2cc3c(cc2-c2cnoc2)OCO3)nc2c(N)ncnc21 [Compound 4C-10, 9-(3-(isopropylamino)propyl)-8-(6-(isoxazol-4-yl)benzo[d][1,3]dioxol-5-ylthio)-9H-purin-6-amine] |
